Experiments:
[1] = molecular target: PDE 4; experiment: PDE 4 enzyme inhibition (SPA); format: biochemical; conditions: PDE 4 purified from human PMNs; cAMP 1 μM
Method: a) Human Polymorphonuclear Leukocyte Isolation
The polymorphonuclear leukocytes (PMNs) were isolated from peripheral blood of healthy volunteers according to Boyum A. (Scand. J. Immunol., 1976, 5th suppl., 9). Briefly, the PMNs were purified by Ficoll-Paque gradient centrifugation followed by sedimentation on dextran and the erythrocyte contamination was eliminated by hypotonic lysis.
b) PDE 4 Enzyme Purification
The human PMNs were suspended in TRIS/HCl buffer (10 mM, pH 7.8) containing MgCl2 (5 mM), EGTA (4 mM), mercaptoethanol (5 mM), TRITON-X100 (1%), pepstatin A (1 μM), PMSF (100 μM) and leupeptin (1 μM), and homogenised by Polytron homogeniser. The homogenate was centrifuged at 25,000×g for 30 minutes at 4° C. and the PDE 4 enzyme was purified by ion exchange chromatography using the FPLC technique according to Schudt C. et al. (Naunyn-Schmidberg's Arch. Pharmacol., 1991, 334, 682). The supernatant was seeded on a UNO Q12 column (Bio-Rad) and the enzyme was eluted by sodium acetate linear gradient from 50 mM to 1M using a flow rate of 4.5 ml/minutes. The fractions containing enzymatic activity were pooled, dialysed against water and concentrated. The PDE 4 enzyme was stored at, −20° C. in the presence of ethylene glycol (30% v/v) until the use.
The enzyme activity was evaluated with a Scintillation Proximity Assay (SPA) kit (Amersham). The enzymatic reaction was performed in a final volume of 100 μl of TRIS/HCl buffer (50 mM, pH 7.5), MgCl2 (8.3 mM), EGTA (1.7 mM), cAMP (1 μM) and [^3H]cAMP (˜100.000 dpm) as tracer. The compounds of the invention, the reference ones or the vehicle were added at different concentrations. As reference compounds 6,7-dimethoxy-4-pyridin-4-yl-methyl)2H-phthalazin-1-one (reference 1) and 6,7-dimethoxy-4-(piperidin-4-yl-methyl)2H-phthalazin-1-one (reference 2) embraced by the general formula of the patent application EP-0 722 936 (in the name of Eisai) were used. The reaction was started by adding 1.5 μg protein and incubated for 40 minutes at 30° C. SPA beads (50 μl) containing 18 mM zinc sulphate were added to stop the reaction and after 20 minutes at room temperature the radioactivity was measured using a scintillation counter.
The IC50 value refers to the nanomolar concentration of the compound required to inhibit cyclic nucleotide hydrolysis by 50%, and it was calculated by non-linear regression analysis.

[2] = molecular target: T1, PDE 3 (Homo sapiens, UniProt Q14432); experiment: PDE 3 enzyme inhibition (SPA); format: biochemical; conditions: 10^−6 M; PDE 3 from human platelets; cAMP
T1 construct: The fractions containing the enzymatic activities (PDE 3 or PDE 5) were pooled; from tissue; host or cells: human platelets from platelet rich plasma of healthy volunteers
Method: (§1) a) Human Platelet Preparation
(§2) Human platelets were prepared from platelet rich plasma (PRP) obtained from healthy volunteers. The PRP was centrifuiged at 2,200 rpm for 15 minutes at 4° C. and the pellet was suspended in lysis solution (15 ml; 155 mM NH4Cl, 10 mM KHCO3 and 0.1 mM Na2EDTA, pH=7.4) and incubated for 10 minutes on ice-bath to remove the erythrocyte contamination. After centrifugation at 1,400 rpm for 10 minutes at 4° C., platelets were suspended in 10 ml of […], 5 mM KCl, 1 mM MgSO4, 10 mM glucose, 10 mM HEPES (pH 7.4) and 0.05 U/ml of hirudin, and stored at −20° C. until homogenisation. Platelets were thawed and 50 ml of 20 mM TRIS (pH=6.5) containing 5 mM β-mercapto-ethanol, 2 mM EDTA, 50 mM sodium acetate and 50 μM PMSF (homogenisation buffer) were added. The platelet suspension was then homogenised by a Polytron homogeniser (Polytron PT 1200) for 20 seconds. The homogenate was centrifuged at 14,500 rpm for 20 minutes at 4° C., and the supernatant was applied to an UNO Q12 column (Bio-Rad). The PDE 3 and PDE 5 were eluted by sodium acetate linear gradient from 0.05M to 1M using a flow rate of 4.5 ml/minutes. The fractions containing the enzymatic activities (PDE 3 or PDE 5) were pooled, dialysed against water and concentrated 10 times by ultrafiltration. The PDE 3 and PDE 5 fractions were stored at −20° C. in the presence of ethylene glycol (30% v/v) until use.
(§3) b) PDE 3 and PDE 5 Activity Assay
(§4) The enzyme activity was evaluated with a Scintillation Proximity Assay (SPA) kit (Amersham). The enzymatic reaction was performed in a final volume of 100 μl of TRIS/HCl buffer (50 mM, pH7.5), MgCl2 (8.3 mM), EGTA (1.7 mM), cAMP (for PDE 3 assay) or cGMP (for PDE 5 assay) (1 μM), [^3H]cAMP or [^3H]cGMP (10 μl ), and 10 μl of the compounds of the invention or vehicle. The reaction was started by adding the enzyme (1.0 μg) and incubated for 40 minutes at 30° C. SPA beads (50 μl) containing 18 mM zinc sulphate were added to stop the reaction and after 20 minutes at room temperature the radioacticity was measured using a scintillation counter.
(§5) The compounds were tested at 10^−6M and the results are expressed as percent of inhibition.

[3] = molecular target: T2, PDE 5 (Homo sapiens, UniProt O76074); experiment: PDE 5 enzyme inhibition (SPA); format: biochemical; conditions: 10^−6 M; PDE 5 from human platelets; cGMP
T2 construct: The fractions containing the enzymatic activities (PDE 3 or PDE 5) were pooled; from tissue; host or cells: human platelets from platelet rich plasma of healthy volunteers
Method: as §1, §2, §3, §4, §5

[4] = test system: TNFα release from human monocytes; experiment: TNFα release inhibition in LPS-stimulated monocytes; format: cell-based; conditions: Monocyte, LPS 1 ng/ml, 16 hours, ELISA
Method: a) Human Monocyte Isolation
The monocytes were isolated from peripheral blood of healthy volunteers according to the procedure of Schreek L. et al. (J. Natl. Cancer Inst., 1964, 32, 507). The monocyte and lymphocyte population was isolated by Ficoll gradient centrifugation, and the cells diluted at a density of 2.5×10^6 cells/ml in RPMI1640 incubation medium containing 1% heat-inactivated foetal calf serum, penicillin (100 U/ml) and streptomycin (100 μg/ml) were plated in 24-wells plates (1 ml/well) and left to adhere for 1 hour at 37° C. with 5% CO2. Non-adherent lymphocytes were removed by aspiration and the monocytes adhered to the plate were used in the next step.
The TNFα release from human monocytes was measured according to the method of Barnette M. et al. (Biochemical Pharmacology, 1996, 51, 949). The monocytes were incubated for 1 hour with 1 ml of RPMI1640 incubation medium (1% beat-inactivated foetal calf serum, 100 U/ml penicillin and 100 μg/ml streptomyc in) containing different concentrations of the products according to the present invention or the vehicle for the controls. The TNFα release from monocytes was induced by adding 1 ng/ml of LPS (lipopolysaccharide from E. Coli) and after 16 hours of incubation at 37° C., 5% CO2, the incubation medium was removed, centrifuged and the supernatant stored at −80° C. until TNFα assay by ELISA kit (Amersham). The results are expressed as IC50 following the same calculation explained in example 147.

T1 sequence (Q14432 whole entry): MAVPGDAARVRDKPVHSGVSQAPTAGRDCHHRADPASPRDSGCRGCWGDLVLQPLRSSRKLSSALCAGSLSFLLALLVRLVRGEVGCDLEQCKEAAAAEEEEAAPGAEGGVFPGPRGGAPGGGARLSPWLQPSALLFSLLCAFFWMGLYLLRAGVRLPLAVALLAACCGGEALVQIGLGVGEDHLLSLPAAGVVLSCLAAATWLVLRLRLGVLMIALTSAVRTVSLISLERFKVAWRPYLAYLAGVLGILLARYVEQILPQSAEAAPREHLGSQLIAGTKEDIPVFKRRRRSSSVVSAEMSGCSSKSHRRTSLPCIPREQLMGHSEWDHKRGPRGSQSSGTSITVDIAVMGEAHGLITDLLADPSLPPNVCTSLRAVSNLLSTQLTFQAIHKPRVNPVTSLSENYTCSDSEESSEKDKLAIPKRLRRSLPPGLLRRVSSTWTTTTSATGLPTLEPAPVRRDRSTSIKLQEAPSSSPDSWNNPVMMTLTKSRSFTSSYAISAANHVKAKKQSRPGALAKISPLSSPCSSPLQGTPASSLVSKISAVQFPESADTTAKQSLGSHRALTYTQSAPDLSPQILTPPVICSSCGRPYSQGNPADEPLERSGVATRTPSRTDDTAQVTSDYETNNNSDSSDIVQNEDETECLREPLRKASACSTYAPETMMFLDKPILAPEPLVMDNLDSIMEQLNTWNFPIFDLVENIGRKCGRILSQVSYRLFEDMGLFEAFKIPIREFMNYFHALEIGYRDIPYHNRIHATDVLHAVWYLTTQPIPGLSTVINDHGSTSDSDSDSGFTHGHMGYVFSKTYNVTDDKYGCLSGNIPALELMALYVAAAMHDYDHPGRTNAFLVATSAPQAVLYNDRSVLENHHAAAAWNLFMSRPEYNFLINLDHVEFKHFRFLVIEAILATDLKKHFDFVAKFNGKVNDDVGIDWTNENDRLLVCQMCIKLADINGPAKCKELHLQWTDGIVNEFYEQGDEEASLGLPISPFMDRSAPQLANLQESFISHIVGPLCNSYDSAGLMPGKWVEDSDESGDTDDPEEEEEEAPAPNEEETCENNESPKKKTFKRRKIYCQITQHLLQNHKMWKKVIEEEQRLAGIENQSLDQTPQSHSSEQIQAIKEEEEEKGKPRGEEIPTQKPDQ

SMILES | IC50 [1] | inhibition at 1 µM [2] | inhibition at 1 µM [3] | IC50 [4]
COc1ccc2c(c1)CN(S(C)(=O)=O)N=C2Cc1c(Cl)cncc1Cl [Compound 15, 4-(3,5-Dichloro-pyridin-4-ylmethyl)-2-methanesulfonyl-7-methoxy-1,2-dihydro-phthalazine] | 21 ± 4 nM | 15% | 0% | 
COc1ccc2c(Cc3c(Cl)cncc3Cl)nn(CCc3ccccc3)c(=O)c2c1 [Compound 22, 4-(3,5-Dichloro-pyridin-4-ylmethyl)-7-methoxy-2-phenethyl-2H-phthalazin-1-one] | 225 ± 35 nM | 20% | 8% | 
COc1ccc2c(Cc3c(Cl)cncc3Cl)nn(CCCCCc3ccccc3)c(=O)c2c1 [Compound 23, 4-(3,5-Dichloro-pyridin-4-ylmethyl)-7-methoxy-2-(5-phenyl-pentyl)-2H-phthalazin-1-one] | 209 ± 26 nM | 19% | 21% | 
COc1ccc2c(c1)CN(C(C)=O)N=C2Cc1c(Cl)cncc1Cl [Compound 8, 1-[4-(3,5-Dichloro-pyridin-4-ylmethyl)-7-methoxy-1H-phthalazin-2-yl]-ethanone] | 51 ± 7 nM | 12% | 35% | 48 ± 14 nM
COc1ccc2c(Cc3c(Cl)cncc3Cl)nnc(-n3cncn3)c2c1 [Compound 29, 1-(3,5-Dichloro-pyridin-4-ylmethyl)-6-methoxy-4-[1,2,4]triazol-1-yl-phthalazine] | 241 ± 73 nM | -4% | 1% | 73 ± 21 nM
COc1ccc2c(Cc3c(Cl)cncc3Cl)nnc(-c3nccs3)c2c1 [Compound 26, 1-(3,5-Dichloro-pyridin-4-ylmethyl)-6-methoxy-4-thiazol-2-yl-phthalazine] | 14 ± 2 nM |  | 0% | 
FC(F)Oc1ccc2c(Cc3c(Cl)cncc3Cl)nnc(-n3cncn3)c2c1 [Compound 54, 1-(3,5-Dichloro-pyridin-4-ylmethyl)-6-difluoromethoxy-4-[1,2,4]triazol-1-yl-phthalazine] |  | 2% | 33% | 
COc1ccc2c(Cc3c(Cl)cncc3Cl)nnc(C#Cc3ccccc3)c2c1 [Compound 27, 1-(3,5-Dichloro-pyridin-4-ylmethyl)-6-methoxy-4-phenylethynyl-phthalazine] | 48 ± 12 nM | 15% | 9% | 
CCn1nc(Cc2c(Cl)cncc2Cl)c2ccc(OC)cc2c1=O [Compound 20, 4-(3,5-Dichloro-pyridin-4-ylmethyl)-2-ethyl-7-methoxy-2H-phthalazin-1-one] | 158 ± 34 nM | 5% | 11% | 
COc1ccc2c(Cc3c(Cl)cncc3Cl)nnc(-c3ccccc3)c2c1 [Compound 5, 1-(3,5-Dichloro-pyridin-4-ylmethyl)-6-methoxy-4-phenyl-phthalazine] | 37 ± 6 nM | 7% | 21% | 46 ± 15 nM
COc1ccc2c(Cc3c(Cl)cncc3Cl)nnc(CN3CCOCC3)c2c1 [Compound 56, 1-(3,5-Dichloro-pyridin-4-ylmethyl)-6-methoxy-4-morpholin-4-ylmethyl-phthalazine] | 364 ± 67 nM | -9% | 14% | 260 ± 44 nM
CNC(=O)N1Cc2cc(OC)ccc2C(Cc2c(Cl)cncc2Cl)=N1 [Compound 17, 4-(3,5-Dichloro-pyridin-4-ylmethyl)-7-methoxy-1H-phthalazine-2-carboxylic acid methyl-amide] | 131 ± 24 nM | 12% | 21% | 
COc1ccc2c(Cc3c(Cl)cncc3Cl)nnc(N3CCOCC3)c2c1 [Compound 38, 1(3,5-Dichloro-pyridin-4-ylmethyl)-6-methoxy-4-morpholin-4-yl-phthalazine] | 132 ± 30 nM | -2% | 1% | 62 ± 17 nM
COc1ccc2c(Cc3c(Cl)cncc3Cl)nnc(N3CCCC3)c2c1 [Compound 49, 1-(3,5-Dichloropyridin-4-ylmethyl)-6-methoxy-4-pyrrolidin-1-yl-phthalazine] |  | -10% | 10% | 9.1 ± 2.9 nM
COc1ccc2c(c1)CN(C(=O)C(C)C)N=C2Cc1c(Cl)cncc1Cl [Compound 11, 1-[4-(3,5-Dichloro-pyridin-4-ylmethyl)-7-methoxy-1H-phthalazin-2-yl]-2-methyl-propan-1-one] | 26 ± 3 nM | 17% | 10% | 
C#Cc1nnc(Cc2c(Cl)cncc2Cl)c2ccc(OC)cc12 [Compound 60, 1-(3,5-Dichloro-pyridin-4-ylmethyl)-4-ethynyl-6-methoxy-phthalazine] | 93 ± 29 nM | -2% | 1% | 

— patent publication US6492360B1, “Phthalazine derivatives phosphodiesterase 4 inhibitors” (Zambon Group S.p.A., priority 1998, dated 2002)
